In ChEMBL document CHEMBL1201862, “PubChem BioAssay data set” (2004):
Calls of active or inactive are those of the source.

What was measured:
Estrogen receptor = target: T1, Estrogen receptor (Homo sapiens, UniProt P03372);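 further: potency for inhibiting coactivator peptide recruitment to the receptor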
T1 sequence (P03372 whole entry): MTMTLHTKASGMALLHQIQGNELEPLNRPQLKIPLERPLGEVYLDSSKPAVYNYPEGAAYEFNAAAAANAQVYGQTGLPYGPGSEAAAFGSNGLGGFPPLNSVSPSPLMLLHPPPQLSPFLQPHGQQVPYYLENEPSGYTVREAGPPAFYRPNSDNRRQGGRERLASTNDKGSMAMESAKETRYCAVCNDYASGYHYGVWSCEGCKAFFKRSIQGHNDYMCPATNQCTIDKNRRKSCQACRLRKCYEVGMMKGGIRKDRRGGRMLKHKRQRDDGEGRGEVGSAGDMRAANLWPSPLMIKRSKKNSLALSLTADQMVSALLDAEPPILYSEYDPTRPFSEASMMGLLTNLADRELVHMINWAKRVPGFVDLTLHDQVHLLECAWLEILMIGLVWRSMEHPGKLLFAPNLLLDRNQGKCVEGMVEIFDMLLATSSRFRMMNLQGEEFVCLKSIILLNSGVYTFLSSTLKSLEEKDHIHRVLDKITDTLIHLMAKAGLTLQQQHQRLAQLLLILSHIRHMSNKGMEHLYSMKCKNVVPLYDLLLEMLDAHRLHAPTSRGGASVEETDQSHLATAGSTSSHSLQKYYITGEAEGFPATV

[1] = cytotoxicity in HEK-293T cells, dose response, cytotoxicity control for TCR NF-kB inhibitor project, luminescence, T-cell screen hits (AID 489026); type: functional, cell-based;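 further: cells exposed to compound about 14 hours before the viability readout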
[2] = target: T2, Microphthalmia-associated transcription factor (Homo sapiens, UniProt O75030); experiment: TRPM1 promoter luciferase signal decrease, dose response, MITF inhibitor project, cell-based, SK-MEL-5, cherry-picked, set 3 (AID 493073); type: functional
T2 sequence (O75030 whole entry): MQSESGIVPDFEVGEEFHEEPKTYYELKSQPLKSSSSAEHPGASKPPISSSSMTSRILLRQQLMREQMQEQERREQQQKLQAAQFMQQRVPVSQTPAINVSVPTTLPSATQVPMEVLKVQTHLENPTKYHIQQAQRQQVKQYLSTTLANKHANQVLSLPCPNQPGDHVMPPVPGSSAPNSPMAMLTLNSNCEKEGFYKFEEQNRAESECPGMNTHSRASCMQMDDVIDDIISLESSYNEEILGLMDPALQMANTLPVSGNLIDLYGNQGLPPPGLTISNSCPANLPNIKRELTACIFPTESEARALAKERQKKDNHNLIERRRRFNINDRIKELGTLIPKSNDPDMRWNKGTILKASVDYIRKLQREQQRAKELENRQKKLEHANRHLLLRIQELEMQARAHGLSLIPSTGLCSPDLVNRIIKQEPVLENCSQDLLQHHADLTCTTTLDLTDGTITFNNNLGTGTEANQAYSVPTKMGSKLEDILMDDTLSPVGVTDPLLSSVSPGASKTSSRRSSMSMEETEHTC

BJ [3] = experiment: cytotoxicity toward BJ-TERT fibroblasts, dose response, cell-based, RAS-independent, luminescence (AID 1933); type: functional; details: Homo sapiens
BJ [4] = experiment: cells; type: functional, cell-based; details: Homo sapiens
[5] = cytotoxicity toward DRD oncogenic fibroblasts, dose response, cell-based, non-viral oncogenic, luminescence (AID 1934); type: functional; details: Homo sapiens
[6] = cytotoxicity in HEK-293T cells, dose response, cytotoxicity control for BCR NF-kB inhibitor project, luminescence, B-cell screen hits (AID 489021); type: functional, cell-based;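 further: HEK-293T cells carrying an NF-kB luciferase reporter; cells exposed to compound for about 14 hours before viability readout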
Escherichia coli = experiment: microbe, parasite or virus in culture
[7] = THP-1 cell cytotoxicity, dose response, cytotoxicity control for non-replicating M. tuberculosis project (AID 489025); type: functional
[8] = Vero E6 cell cytotoxicity, dose response, cytotoxicity control for non-replicating M. tuberculosis project, secondary assay (AID 492998); type: functional, VeroE6; details: Vero C1008
Nonstructural protein 1 = Nonstructural protein 1 (Influenza A virus, UniProt Q194T2); type: functional, Influenza A virus (A/California/07/2009(H1N1))
cells = type: functional
INS1 = experiment: beta cell apoptosis inhibitors, cytokine rescue, dose response, luminescence, retest (AID 449756); type: functional, cell-based; details: Rattus norvegicus;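 further: cell death triggered by IL-1 beta plus TNF-alpha plus IFN-gamma mixture; protective hits raise ATP signal compared with cytokine alone wells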
[9] = target: T3, RNA-binding protein pos-1 (Caenorhabditis elegans, UniProt G5EF15); experiment: inhibitors of POS-1/mex-3 RNA binding, dose response, biochemical, fluorescence polarization (AID 1964);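 further: purified POS-1 fused to maltose binding protein made in E. coli; potency of compounds blocking POS-1 binding to fluorescent RNA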
T3 sequence (G5EF15 whole entry): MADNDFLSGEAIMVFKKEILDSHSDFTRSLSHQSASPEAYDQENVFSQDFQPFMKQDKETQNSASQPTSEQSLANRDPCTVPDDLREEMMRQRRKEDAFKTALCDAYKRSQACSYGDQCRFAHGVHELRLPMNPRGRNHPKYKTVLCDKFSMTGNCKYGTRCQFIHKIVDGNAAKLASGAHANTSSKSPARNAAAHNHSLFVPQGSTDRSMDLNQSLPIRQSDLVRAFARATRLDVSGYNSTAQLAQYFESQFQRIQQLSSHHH

[10] = target: T4, Zinc finger protein mex-5 (Caenorhabditis elegans, UniProt Q9XUB2); experiment: MEX-5/TCR-2 RNA interaction inhibitors, dose response, biochemical, C. elegans, fluorescence polarization (AID 1960)
T4 sequence (Q9XUB2 whole entry): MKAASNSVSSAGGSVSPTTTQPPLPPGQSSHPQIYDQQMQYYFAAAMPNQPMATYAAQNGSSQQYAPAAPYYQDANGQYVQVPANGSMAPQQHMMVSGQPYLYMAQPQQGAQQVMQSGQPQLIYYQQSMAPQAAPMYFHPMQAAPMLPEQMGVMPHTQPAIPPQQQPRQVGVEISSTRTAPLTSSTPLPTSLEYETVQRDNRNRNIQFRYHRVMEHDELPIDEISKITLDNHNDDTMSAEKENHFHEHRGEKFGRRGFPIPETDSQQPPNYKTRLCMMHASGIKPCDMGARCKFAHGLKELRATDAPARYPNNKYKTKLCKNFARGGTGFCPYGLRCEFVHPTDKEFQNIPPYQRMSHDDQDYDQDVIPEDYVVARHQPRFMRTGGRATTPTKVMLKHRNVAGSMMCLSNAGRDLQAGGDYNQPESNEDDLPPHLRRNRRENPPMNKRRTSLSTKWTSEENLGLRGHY

[11] = target: T5, Heat shock factor protein 1 (Mus musculus, UniProt P38532); experiment: inhibition of MG132-induced HSE-luciferase signal, confirmation, cell-based, NIH3T3, luminescence, dose retest (AID 2382); type: functional;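 further: NIH3T3 fibroblasts with HSF1-driven luciferase reporter stressed by proteasome inhibitor MG132; luminescence from HSF1-driven luciferase expression after 8 hours of MG132 stress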
T5 sequence (P38532 whole entry): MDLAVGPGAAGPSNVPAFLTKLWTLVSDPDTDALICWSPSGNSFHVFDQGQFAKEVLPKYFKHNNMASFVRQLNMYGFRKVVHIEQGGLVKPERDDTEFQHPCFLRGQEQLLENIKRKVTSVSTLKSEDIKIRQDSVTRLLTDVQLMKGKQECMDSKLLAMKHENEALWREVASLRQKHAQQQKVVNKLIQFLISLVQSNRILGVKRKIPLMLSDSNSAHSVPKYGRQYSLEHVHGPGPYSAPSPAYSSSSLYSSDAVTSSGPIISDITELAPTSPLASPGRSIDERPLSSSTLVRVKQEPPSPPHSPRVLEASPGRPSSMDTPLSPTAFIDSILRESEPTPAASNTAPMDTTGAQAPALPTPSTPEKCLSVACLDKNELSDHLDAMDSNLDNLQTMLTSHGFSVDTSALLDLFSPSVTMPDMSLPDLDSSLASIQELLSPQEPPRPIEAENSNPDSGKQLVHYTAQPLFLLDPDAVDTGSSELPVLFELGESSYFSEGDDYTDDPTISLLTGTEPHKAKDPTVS

Estrogen receptor beta [12] = target: T6, Estrogen receptor beta (Homo sapiens, UniProt Q92731);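 further: recombinant ER-beta bound to coactivator SRC1 peptide in presence of estradiol agonist; inhibitors block coactivator peptide binding and lower the FRET signal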
Estrogen receptor beta [13] = target: T6, Estrogen receptor beta; experiment: ERβ–SRC-3 coactivator interaction inhibitors, confirmation, orthogonal assay, biochemical, ELISA, streptavidin-HRP readout (AID 1060)
Cytochrome P450 3A4 = Cytochrome P450 3A4 (Homo sapiens, UniProt P08684); details: Potency;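 further: confirmatory qHTS run detecting inhibitors and substrates of CYP3A4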
Coagulation factor XII = target: T7, Coagulation factor XII (Homo sapiens, UniProt P00748); type: functional;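 further: activated factor XIIa alpha cleaving a fluorogenic AMC peptide substrate; inhibitor potency from loss of enzyme activity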
T7 sequence (P00748 whole entry): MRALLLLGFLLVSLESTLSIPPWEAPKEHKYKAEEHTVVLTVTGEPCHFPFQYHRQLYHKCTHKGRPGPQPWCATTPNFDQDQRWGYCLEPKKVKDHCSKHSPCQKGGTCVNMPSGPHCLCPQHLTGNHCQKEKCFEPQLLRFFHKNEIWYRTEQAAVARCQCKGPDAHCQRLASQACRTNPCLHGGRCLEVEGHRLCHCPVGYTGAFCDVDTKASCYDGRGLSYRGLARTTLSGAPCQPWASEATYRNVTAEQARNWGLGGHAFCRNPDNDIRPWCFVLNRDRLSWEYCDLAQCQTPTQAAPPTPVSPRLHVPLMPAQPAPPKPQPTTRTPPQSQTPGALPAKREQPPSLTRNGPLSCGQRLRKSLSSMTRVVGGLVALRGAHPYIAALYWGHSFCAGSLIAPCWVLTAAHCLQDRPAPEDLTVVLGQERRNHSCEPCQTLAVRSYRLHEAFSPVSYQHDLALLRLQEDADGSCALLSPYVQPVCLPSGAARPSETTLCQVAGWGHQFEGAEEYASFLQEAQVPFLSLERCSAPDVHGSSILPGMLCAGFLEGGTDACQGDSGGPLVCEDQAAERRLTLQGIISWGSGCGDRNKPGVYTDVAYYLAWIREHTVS

SUMO-activating enzyme = SUMO-activating enzyme (Homo sapiens, UniProt Q9UBT2); experiment: SUMOylation inhibitor hit validation, confirmation, SUMOylation inhibitor project, biochemical, AlphaScreen (AID 2018); type: functional
[14] = target: Voltage-dependent T-type calcium channel subunit alpha-1H (Homo sapiens, UniProt O95180); type: functional;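 further: channel activity triggered by adding a high calcium stimulation buffer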
Sequence of Voltage-dependent T-type calcium channel subunit alpha-1H (O95180 whole entry): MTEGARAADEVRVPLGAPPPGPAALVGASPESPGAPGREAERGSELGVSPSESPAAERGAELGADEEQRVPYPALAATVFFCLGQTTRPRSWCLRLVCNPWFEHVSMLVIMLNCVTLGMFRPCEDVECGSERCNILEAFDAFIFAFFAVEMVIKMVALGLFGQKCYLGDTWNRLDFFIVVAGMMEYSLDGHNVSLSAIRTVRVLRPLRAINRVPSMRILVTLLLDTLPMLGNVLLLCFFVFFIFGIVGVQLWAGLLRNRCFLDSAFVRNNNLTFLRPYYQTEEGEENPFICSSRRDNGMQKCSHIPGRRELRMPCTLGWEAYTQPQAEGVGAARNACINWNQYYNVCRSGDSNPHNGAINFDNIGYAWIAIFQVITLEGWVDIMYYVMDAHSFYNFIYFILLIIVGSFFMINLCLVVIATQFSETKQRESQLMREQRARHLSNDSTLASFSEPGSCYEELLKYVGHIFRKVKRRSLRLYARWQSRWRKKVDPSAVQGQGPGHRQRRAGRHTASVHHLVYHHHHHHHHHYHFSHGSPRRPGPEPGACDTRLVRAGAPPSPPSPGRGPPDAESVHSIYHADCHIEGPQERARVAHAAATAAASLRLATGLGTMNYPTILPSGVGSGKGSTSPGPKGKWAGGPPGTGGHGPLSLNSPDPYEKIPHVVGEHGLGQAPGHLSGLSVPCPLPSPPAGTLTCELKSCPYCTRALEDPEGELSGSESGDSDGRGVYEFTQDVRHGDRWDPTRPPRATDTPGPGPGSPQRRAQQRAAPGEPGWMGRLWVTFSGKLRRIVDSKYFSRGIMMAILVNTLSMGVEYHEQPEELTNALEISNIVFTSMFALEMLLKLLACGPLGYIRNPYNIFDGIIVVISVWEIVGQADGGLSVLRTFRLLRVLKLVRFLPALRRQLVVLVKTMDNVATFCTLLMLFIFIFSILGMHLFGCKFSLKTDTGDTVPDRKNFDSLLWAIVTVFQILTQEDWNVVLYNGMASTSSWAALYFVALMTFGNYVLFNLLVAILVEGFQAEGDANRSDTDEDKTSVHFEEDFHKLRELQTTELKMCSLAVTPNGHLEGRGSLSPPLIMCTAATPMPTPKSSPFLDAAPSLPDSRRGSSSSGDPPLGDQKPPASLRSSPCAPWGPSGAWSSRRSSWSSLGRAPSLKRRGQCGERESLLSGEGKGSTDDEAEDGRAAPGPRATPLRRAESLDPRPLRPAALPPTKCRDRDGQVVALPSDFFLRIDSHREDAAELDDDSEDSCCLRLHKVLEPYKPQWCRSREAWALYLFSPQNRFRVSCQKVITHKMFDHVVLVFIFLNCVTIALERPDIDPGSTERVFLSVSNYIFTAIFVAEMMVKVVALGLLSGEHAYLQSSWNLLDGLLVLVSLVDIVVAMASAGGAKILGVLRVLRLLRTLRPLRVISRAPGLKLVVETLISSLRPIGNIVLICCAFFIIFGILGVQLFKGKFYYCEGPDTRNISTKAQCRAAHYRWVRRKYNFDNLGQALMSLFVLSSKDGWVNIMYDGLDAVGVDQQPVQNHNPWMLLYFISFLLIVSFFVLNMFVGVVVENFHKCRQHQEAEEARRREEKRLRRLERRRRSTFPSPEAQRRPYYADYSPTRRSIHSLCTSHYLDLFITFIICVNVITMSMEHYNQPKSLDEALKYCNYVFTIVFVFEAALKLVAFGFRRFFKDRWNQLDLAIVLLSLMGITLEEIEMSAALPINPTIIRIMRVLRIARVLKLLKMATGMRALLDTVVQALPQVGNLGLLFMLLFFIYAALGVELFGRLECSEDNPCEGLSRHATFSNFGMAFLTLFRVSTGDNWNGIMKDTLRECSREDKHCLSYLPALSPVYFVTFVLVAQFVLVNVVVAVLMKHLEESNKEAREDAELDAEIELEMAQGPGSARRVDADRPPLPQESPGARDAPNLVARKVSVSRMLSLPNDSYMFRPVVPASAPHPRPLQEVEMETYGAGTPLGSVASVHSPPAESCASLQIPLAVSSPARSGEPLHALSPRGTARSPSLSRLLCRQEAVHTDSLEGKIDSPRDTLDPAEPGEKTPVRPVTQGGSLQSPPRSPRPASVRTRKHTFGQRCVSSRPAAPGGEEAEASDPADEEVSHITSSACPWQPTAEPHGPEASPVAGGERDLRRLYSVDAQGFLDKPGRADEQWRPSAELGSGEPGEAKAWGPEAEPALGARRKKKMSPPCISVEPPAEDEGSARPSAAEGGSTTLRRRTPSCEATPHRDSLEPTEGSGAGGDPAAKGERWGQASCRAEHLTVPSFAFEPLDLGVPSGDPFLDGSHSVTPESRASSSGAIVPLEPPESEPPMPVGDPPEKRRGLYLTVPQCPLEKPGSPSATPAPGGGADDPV

Sequence of Cytochrome P450 3A4 (P08684 whole entry): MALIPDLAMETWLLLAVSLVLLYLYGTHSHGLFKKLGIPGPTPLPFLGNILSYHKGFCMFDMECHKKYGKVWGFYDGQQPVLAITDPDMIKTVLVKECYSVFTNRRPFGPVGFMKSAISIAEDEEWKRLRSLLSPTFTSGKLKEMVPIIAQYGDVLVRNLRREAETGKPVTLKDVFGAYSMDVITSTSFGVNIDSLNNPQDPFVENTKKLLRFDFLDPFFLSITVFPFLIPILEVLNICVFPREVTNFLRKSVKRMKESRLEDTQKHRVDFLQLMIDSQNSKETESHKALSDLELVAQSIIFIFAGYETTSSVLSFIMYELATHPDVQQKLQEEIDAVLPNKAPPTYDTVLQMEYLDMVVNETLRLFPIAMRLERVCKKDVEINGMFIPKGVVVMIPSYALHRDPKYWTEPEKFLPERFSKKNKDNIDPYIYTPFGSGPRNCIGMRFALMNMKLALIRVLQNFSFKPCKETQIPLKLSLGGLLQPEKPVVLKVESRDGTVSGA
T6 sequence (Q92731 whole entry): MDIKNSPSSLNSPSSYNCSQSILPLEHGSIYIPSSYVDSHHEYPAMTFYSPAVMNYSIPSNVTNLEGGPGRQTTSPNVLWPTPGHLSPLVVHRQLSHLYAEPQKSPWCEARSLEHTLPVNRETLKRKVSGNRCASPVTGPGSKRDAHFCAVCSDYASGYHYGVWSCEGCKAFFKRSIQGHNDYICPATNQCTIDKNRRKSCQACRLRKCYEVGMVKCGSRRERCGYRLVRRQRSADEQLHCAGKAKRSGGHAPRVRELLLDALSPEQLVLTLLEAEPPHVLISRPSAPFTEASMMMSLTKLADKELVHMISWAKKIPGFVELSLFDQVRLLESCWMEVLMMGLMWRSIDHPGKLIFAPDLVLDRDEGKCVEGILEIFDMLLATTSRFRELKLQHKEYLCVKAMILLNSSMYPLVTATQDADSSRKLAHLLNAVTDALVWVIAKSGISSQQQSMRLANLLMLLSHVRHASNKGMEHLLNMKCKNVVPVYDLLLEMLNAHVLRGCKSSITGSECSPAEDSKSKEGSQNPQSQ
Sequence of Nonstructural protein 1 (Q194T2 whole entry): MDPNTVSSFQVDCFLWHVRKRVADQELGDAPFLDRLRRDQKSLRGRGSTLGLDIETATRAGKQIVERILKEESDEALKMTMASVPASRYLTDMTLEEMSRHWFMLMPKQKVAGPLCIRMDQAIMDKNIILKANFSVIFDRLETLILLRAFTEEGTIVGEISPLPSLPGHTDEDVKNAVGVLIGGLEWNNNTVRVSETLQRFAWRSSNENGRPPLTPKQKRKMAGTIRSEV
Sequence of SUMO-activating enzyme (Q9UBE0 whole entry): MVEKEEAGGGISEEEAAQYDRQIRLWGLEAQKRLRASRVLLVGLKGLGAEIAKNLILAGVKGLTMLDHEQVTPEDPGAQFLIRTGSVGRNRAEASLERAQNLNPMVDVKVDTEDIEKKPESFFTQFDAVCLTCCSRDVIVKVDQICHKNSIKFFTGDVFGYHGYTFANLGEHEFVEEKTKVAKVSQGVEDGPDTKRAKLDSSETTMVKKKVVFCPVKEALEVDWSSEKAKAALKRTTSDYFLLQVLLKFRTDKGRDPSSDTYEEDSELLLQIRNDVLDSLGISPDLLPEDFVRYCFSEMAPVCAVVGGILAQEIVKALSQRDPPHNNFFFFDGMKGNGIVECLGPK
Sequence of SUMO-activating enzyme (Q9UBT2 whole entry): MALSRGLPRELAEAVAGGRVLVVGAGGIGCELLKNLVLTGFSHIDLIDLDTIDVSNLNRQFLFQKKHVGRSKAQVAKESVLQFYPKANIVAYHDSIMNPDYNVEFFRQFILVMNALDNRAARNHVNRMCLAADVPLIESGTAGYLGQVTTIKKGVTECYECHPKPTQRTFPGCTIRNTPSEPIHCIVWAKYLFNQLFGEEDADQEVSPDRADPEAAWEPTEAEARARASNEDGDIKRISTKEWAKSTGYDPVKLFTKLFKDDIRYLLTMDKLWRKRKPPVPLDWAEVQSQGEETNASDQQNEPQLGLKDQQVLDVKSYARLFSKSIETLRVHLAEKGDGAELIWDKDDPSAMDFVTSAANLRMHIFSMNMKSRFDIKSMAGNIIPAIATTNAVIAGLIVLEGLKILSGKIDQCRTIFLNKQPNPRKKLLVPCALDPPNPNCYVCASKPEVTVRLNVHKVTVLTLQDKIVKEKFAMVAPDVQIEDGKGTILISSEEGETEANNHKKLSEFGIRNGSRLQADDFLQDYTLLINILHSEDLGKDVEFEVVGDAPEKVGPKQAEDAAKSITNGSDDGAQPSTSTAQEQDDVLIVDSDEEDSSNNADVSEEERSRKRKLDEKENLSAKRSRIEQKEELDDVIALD

CCN1CCc2nc(NC(=O)Cc3ccc4c(c3)OCCO4)sc2C1
IC50 (Estrogen receptor): 28.8 µM (active)

Cc1ccc2c(c1)COc1c3ccc(C(=O)O)cc3nn1-2
IC50 [1]: > 80 µM (inactive)
AC50 [2]: 2.23 µM (active)

Cc1noc(C)c1COc1ccc(CC(=O)NCc2ccccc2)cc1
IC50 [1]: > 80 µM (inactive)

Cc1cc(C(=O)N2CC=C(c3ccccc3)CC2)c2ccccc2n1
EC50 (BJ [3]): 1.32 µM (active)
EC50 (BJ [4]): 86.7 µM (active)
EC50 [5]: 0.653 µM (active)
IC50 [1]: > 80 µM (inactive)

CCc1ccc(/C=C2\SC(=S)N(CCC(=O)Nc3cc(C)on3)C2=O)cc1
IC50 [6]: > 80 µM (inactive)

CN(CC(=O)NCCN1CCOCC1)S(=O)(=O)c1ccc(Cl)cc1
AC50 (Escherichia coli): 23.2 µM (active)

O=C(CCCN1C(=O)/C(=C/c2ccccc2Cl)SC1=S)Nc1ccccn1
IC50 [6]: > 80 µM (inactive)

COCCNC(=O)CSCc1nc(-c2ccc(SC)cc2)oc1C
IC50 [6]: > 80 µM (inactive)

O=C(Nc1nc(-c2ccccn2)cs1)c1ccc([N+](=O)[O-])o1
CC50 [7]: 9.27 µM (active)
CC50 [8]: 4.61 µM (active)
IC50 (Nonstructural protein 1): 11.7 µM (active)
AC50 [2]: 10.8 µM (active)
IC50 (cells): 4.38 µM (active)
AC50 (INS1): 2.11 µM (active)

NC1=C(c2nc3ccccc3[nH]2)C(=O)CN1c1ccc(CC(=O)O)cc1
EC50 [9]: 5.25 µM (inconclusive)
EC50 [10]: 1.59 µM (active)
EC50 [11]: > 195 µM (not active)
IC50 (Estrogen receptor beta [12]): 25.9 µM (active)
IC50 (Estrogen receptor beta [13]): < 0.023 µM (not active)

Cc1ccc(N)c(N)c1
AC50 (Cytochrome P450 3A4): 25.1 µM (inconclusive)

O=C(c1cccc(F)c1)N1CCN(C(=O)c2cc3ncc(Br)cn3n2)CC1
IC50 (Estrogen receptor): 33.4 µM (not active)
IC50 (Estrogen receptor beta [12]): 11.5 µM (active)
IC50 (Estrogen receptor beta [13]): 1.16 µM (not active)

CC1(C)Oc2ccc(C(=O)NC3CCCC3)cc2N(CC(=O)NC2CCCC2)C1=O
IC50 (Coagulation factor XII): > 50 µM (inactive)

O=C(Nc1ccc(Br)cc1)C1CC(O)CN1C(=O)Oc1ccccc1 (stereo not given)
AC50 (Escherichia coli): 42.7 µM (active)

COc1ccc(Br)cc1CNC(=O)C1CCCN(c2nc3ccccc3o2)C1 (stereo not given)
IC50 (Estrogen receptor): > 50 µM (not active)

O=C(Oc1ccc2ccc(=O)oc2c1)c1cccs1
IC50 (Coagulation factor XII): 7.8 µM (active)

COc1ccc2c(=O)c(-c3ccccc3)coc2c1
AC50 (Cytochrome P450 3A4): 39.8 µM (inconclusive)

CCOCC(=O)Nc1ccc(S(=O)(=O)Nc2ncccn2)cc1
IC50 (Coagulation factor XII): > 50 µM (inactive)

Cc1ccc(NC(=O)Cn2c(=O)oc3cc(S(=O)(=O)N4CCC(C)CC4)ccc32)cc1C
IC50 (SUMO-activating enzyme): 24.4 µM (active)
EC50 [14]: 5.17 µM (active)
AC50 (INS1): 8.95 µM (active)

COC(=O)c1cccc(C23CC4(C2)[C@H](CN(Cc2ccc(-c5ccccc5)cc2)[C@@H]4c2ccccc2)C3c2ccccc2)c1 (stereo not given in full)
AC50 (Cytochrome P450 3A4): 15.8 µM (inconclusive)

O=C(Nc1ccsc1C(=O)NC1CCCCC1)c1ccccc1
AC50 (Escherichia coli): 26 µM (active)

CC1CCCN(C(=O)C2CCCN(S(=O)(=O)c3cccc4nsnc34)C2)C1 (stereo not given)
IC50 (Coagulation factor XII): > 50 µM (inactive)

CC(=O)N1CC=CC1(CC(C)C)C(=O)NCC1CC1 (stereo not given)
AC50 (Cytochrome P450 3A4): 31.6 µM (inconclusive)
